Patent publication US20080161232A1, “C5a Receptor Antagonist” (JERINI AG, priority 2005, published 2008)
Non-standard residues stand in square brackets, D forms with d. Residues, ends and D or L forms follow the SMILES beside them. ξ: configuration not given here. *: point of attachment. Phe(3,4-Cl2) = N[C@@H](Cc1ccc(Cl)c(Cl)c1)C(=O)O; Phe(F5) = N[C@@H](Cc1c(F)c(F)c(F)c(F)c1F)C(=O)O; Phe(2,4-Cl2) = N[C@@H](Cc1ccc(Cl)cc1Cl)C(=O)O; Phe(2-CF3) = N[C@@H](Cc1ccccc1C(F)(F)F)C(=O)O; Phe(3,4-F2) = N[C@@H](Cc1ccc(F)c(F)c1)C(=O)O; ξTrp(6-F) = NC(Cc1c[nH]c2cc(F)ccc12)C(=O)O; Phe(3-Cl) = N[C@@H](Cc1cccc(Cl)c1)C(=O)O; Phe(4-Cl) = N[C@@H](Cc1ccc(Cl)cc1)C(=O)O; Phe(3-F) = N[C@@H](Cc1cccc(F)c1)C(=O)O; Phe(4-F) = N[C@@H](Cc1ccc(F)cc1)C(=O)O; Phe(4-Me) = Cc1ccc(C[C@H](N)C(=O)O)cc1; 1Nal = N[C@@H](Cc1cccc2ccccc12)C(=O)O; 2Nal = N[C@@H](Cc1ccc2ccccc2c1)C(=O)O; Bta = N[C@@H](Cc1csc2ccccc12)C(=O)O; d(hLeu) = CC(C)CC[C@@H](N)C(=O)O; 2Pal = N[C@@H](Cc1ccccn1)C(=O)O; 2Thi = N[C@@H](Cc1cccs1)C(=O)O; Cha = N[C@@H](CC1CCCCC1)C(=O)O; dCha = N[C@H](CC1CCCCC1)C(=O)O; Aic = NC1(C(=O)O)Cc2ccccc2C1; Chg = N[C@H](C(=O)O)C1CCCCC1; X14 = NC(=O)N(Cc1ccccc1)N*; Orn = NCCC[C@H](N)C(=O)O; tBu = CC(C)(C)*

molecular target: T1, human C5aR(CD88) (Homo sapiens, UniProt P21730); test: Determination of the IC50 value in an enzyme release assay (functional assay, antagonistic activity); assay type: cell-based; details: activity (group), antagonistic activity; IC50 group in enzyme release assay, RBL cells expressing human C5aR(CD88)
T1 construct: expressed in transfected cells; host or cells: rat basophilic leukemia cells (RBL)
T1 sequence (P21730 1-350): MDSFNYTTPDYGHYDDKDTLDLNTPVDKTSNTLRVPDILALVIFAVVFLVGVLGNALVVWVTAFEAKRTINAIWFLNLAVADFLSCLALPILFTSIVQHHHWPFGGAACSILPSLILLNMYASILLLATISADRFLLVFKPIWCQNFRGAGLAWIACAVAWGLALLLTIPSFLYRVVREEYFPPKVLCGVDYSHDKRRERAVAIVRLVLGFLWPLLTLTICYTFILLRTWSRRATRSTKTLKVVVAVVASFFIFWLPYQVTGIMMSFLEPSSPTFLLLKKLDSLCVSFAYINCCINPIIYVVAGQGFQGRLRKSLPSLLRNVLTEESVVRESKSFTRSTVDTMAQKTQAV

SMILES | IC50 [nM]
CC(=O)N[C@@H](Cc1ccccc1)C(=O)N[C@@H](CCCN)C(=O)N1CCC[C@H]1C(=O)N[C@@H](CC1CCCCC1)C(=O)N[C@@H](Cc1csc2ccccc12)C(=O)NN(Cc1ccccc1)C(N)=O [Compound 257, Ac-Phe-Orn-Pro-Cha-Bta-NH-NBn-CO—NH2] (Ac-F[Orn]P[Cha][Bta]-X14) | 50 to 200

same assay, conditions: antagonistic activity; IC50 group in enzyme release assay, RBL cells expressing human C5aR(CD88); read-out: activity (group)

SMILES | IC50 [nM]
CC(=O)N[C@@H](Cc1ccccc1)C(=O)N[C@@H](CCCN)C(=O)N1CCC[C@H]1C(=O)N[C@H](CC1CCCCC1)C(=O)N[C@@H](Cc1csc2ccccc12)C(=O)N[C@@H](Cc1ccc(F)c(F)c1)C(N)=O [Compound 251, Ac-Phe-Orn-Pro-cha-Bta-Dff-NH2] (Ac-F[Orn]P[dCha][Bta][Phe(3,4-F2)]-NH2) | 20 to 50
CC(=O)N[C@@H](Cc1ccccc1)C(=O)N[C@@H](CCCN)C(=O)N1CCC[C@H]1C(=O)N[C@H](CC1CCCCC1)C(=O)N[C@@H](Cc1csc2ccccc12)C(=O)N[C@@H](Cc1cccc(Cl)c1)C(N)=O [Compound 254, Ac-Phe-Orn-Pro-cha-Bta-Mcf-NH2] (Ac-F[Orn]P[dCha][Bta][Phe(3-Cl)]-NH2) | 50 to 200
CC(=O)N[C@@H](Cc1ccccc1)C(=O)N[C@@H](CCCN)C(=O)N1CCC[C@H]1C(=O)N[C@H](CC1CCCCC1)C(=O)N[C@@H](Cc1csc2ccccc12)C(=O)N[C@@H](Cc1cccc(F)c1)C(N)=O [Compound 255, Ac-Phe-Orn-Pro-cha-Bta-Mff-NH2] (Ac-F[Orn]P[dCha][Bta][Phe(3-F)]-NH2) | 10 to 20
CC(=O)N[C@@H](Cc1ccccc1)C(=O)N[C@@H](CCCN)C(=O)N1CCC[C@H]1C(=O)N[C@H](CC1CCCCC1)C(=O)N[C@@H](Cc1csc2ccccc12)C(=O)N[C@@H](Cc1ccccn1)C(N)=O [Compound 258, Ac-Phe-Orn-Pro-cha-Bta-Opa-NH2] (Ac-F[Orn]P[dCha][Bta][2Pal]-NH2) | 50 to 200
CC(=O)N[C@@H](Cc1ccccc1)C(=O)N[C@@H](CCCN)C(=O)N1CCC[C@H]1C(=O)N[C@H](CC1CCCCC1)C(=O)N[C@@H](Cc1csc2ccccc12)C(=O)N[C@@H](Cc1ccc(Cl)cc1)C(N)=O [Compound 259, Ac-Phe-Orn-Pro-cha-Bta-Pcf-NH2] (Ac-F[Orn]P[dCha][Bta][Phe(4-Cl)]-NH2) | 20 to 50
CC(=O)N[C@@H](Cc1ccccc1)C(=O)N[C@@H](CCCN)C(=O)N1CCC[C@H]1C(=O)N[C@H](CC1CCCCC1)C(=O)N[C@@H](Cc1csc2ccccc12)C(=O)N[C@@H](Cc1ccc(C)cc1)C(N)=O [Compound 260, Ac-Phe-Orn-Pro-cha-Bta-Pmf-NH2] (Ac-F[Orn]P[dCha][Bta][Phe(4-Me)]-NH2) | 20 to 50
CC(=O)N[C@@H](Cc1ccccc1)C(=O)N[C@@H](CCCN)C(=O)N1CCC[C@H]1C(=O)N[C@H](CC1CCCCC1)C(=O)N[C@@H](Cc1csc2ccccc12)C(=O)N[C@@H](Cc1cccs1)C(N)=O [Compound 261, Ac-Phe-Orn-Pro-cha-Bta-Thi-NH2] (Ac-F[Orn]P[dCha][Bta][2Thi]-NH2) | 10 to 20
CC(=O)N[C@@H](Cc1ccccc1)C(=O)N[C@@H](CCCN)C(=O)N1CCC[C@H]1C(=O)N[C@H](CC1CCCCC1)C(=O)N[C@@H](Cc1ccccc1C(F)(F)F)C(=O)N[C@@H](Cc1ccccc1)C(N)=O [Compound 262, Ac-Phe-Orn-Pro-cha-Otf-Phe-NH2] (Ac-F[Orn]P[dCha][Phe(2-CF3)]F-NH2) | 50 to 200
CC(=O)N[C@@H](Cc1ccccc1)C(=O)N[C@@H](CCCN)C(=O)N1CCC[C@H]1C(=O)N[C@H](CSC(C)(C)C)C(=O)N[C@@H](Cc1csc2ccccc12)C(=O)N[C@@H](Cc1ccccc1)C(N)=O [Compound 263, Ac-Phe-Orn-Pro-ctb-Bta-Phe-NH2] (Ac-F[Orn]P[dC](tBu)[Bta]F-NH2) | 20 to 50
CC(=O)N[C@@H](Cc1ccccc1)C(=O)N[C@@H](CCCN)C(=O)N1CCC[C@H]1C(=O)N[C@H](CSC(C)(C)C)C(=O)N[C@@H](Cc1ccc(Cl)c(Cl)c1)C(=O)N[C@@H](Cc1ccccc1)C(N)=O [Compound 264, Ac-Phe-Orn-Pro-ctb-Eaa-Phe-NH2] (Ac-F[Orn]P[dC](tBu)[Phe(3,4-Cl2)]F-NH2) | 20 to 50
CC(=O)N[C@@H](Cc1ccccc1)C(=O)N[C@@H](CCCN)C(=O)N1CCC[C@H]1C(=O)N[C@H](CSC(C)(C)C)C(=O)N[C@@H](Cc1cccc(Cl)c1)C(=O)N[C@@H](Cc1ccccc1)C(N)=O [Compound 265, Ac-Phe-Orn-Pro-ctb-Mcf-Phe-NH2] (Ac-F[Orn]P[dC](tBu)[Phe(3-Cl)]F-NH2) | 50 to 200
CC(=O)N[C@@H](Cc1ccccc1)C(=O)N[C@@H](CCCN)C(=O)N1CCC[C@H]1C(=O)N[C@H](CSC(C)(C)C)C(=O)N[C@@H](Cc1ccc(F)cc1)C(=O)N[C@@H](Cc1ccccc1)C(N)=O [Compound 266, Ac-Phe-Orn-Pro-ctb-Pff-Phe-NH2] (Ac-F[Orn]P[dC](tBu)[Phe(4-F)]F-NH2) | 20 to 50
CC(=O)N[C@@H](Cc1ccccc1)C(=O)N[C@@H](CCCN)C(=O)N1CCC[C@H]1C(=O)N[C@H](CCC(C)C)C(=O)N[C@@H](Cc1cccc2ccccc12)C(=O)N[C@@H](Cc1ccccc1)C(N)=O [Compound 268, Ac-Phe-Orn-Pro-hle-1Ni-Phe-NH2] (Ac-F[Orn]P[d(hLeu)][1Nal]F-NH2) | 20 to 50
CC(=O)N[C@@H](Cc1ccccc1)C(=O)N[C@@H](CCCN)C(=O)N1CCC[C@H]1C(=O)N[C@H](CCC(C)C)C(=O)NC(Cc1c[nH]c2cc(F)ccc12)C(=O)N[C@@H](Cc1ccccc1)C(N)=O (stereo partly drawn) [Compound 269, Ac-Phe-Orn-Pro-hle-6FW-Phe-NH2] (Ac-F[Orn]P[d(hLeu)][ξTrp(6-F)]F-NH2) | 50 to 200
CC(=O)N[C@@H](Cc1ccccc1)C(=O)N[C@@H](CCCN)C(=O)N1CCC[C@H]1C(=O)N[C@H](CCC(C)C)C(=O)N[C@@H](Cc1csc2ccccc12)C(=O)N[C@@H](Cc1cccc2ccccc12)C(N)=O [Compound 270, Ac-Phe-Orn-Pro-hle-Bta-1Ni—NH2] (Ac-F[Orn]P[d(hLeu)][Bta][1Nal]-NH2) | 50 to 200
CC(=O)N[C@@H](Cc1ccccc1)C(=O)N[C@@H](CCCN)C(=O)N1CCC[C@H]1C(=O)N[C@H](CCC(C)C)C(=O)N[C@@H](Cc1csc2ccccc12)C(=O)N[C@@H](Cc1ccc2ccccc2c1)C(N)=O [Compound 271, Ac-Phe-Orn-Pro-hle-Bta-2Ni—NH2] (Ac-F[Orn]P[d(hLeu)][Bta][2Nal]-NH2) | 50 to 200
CC(=O)N[C@@H](Cc1ccccc1)C(=O)N[C@@H](CCCN)C(=O)N1CCC[C@H]1C(=O)N[C@H](CCC(C)C)C(=O)N[C@@H](Cc1csc2ccccc12)C(=O)N[C@@H](Cc1c(F)c(F)c(F)c(F)c1F)C(N)=O [Compound 272, Ac-Phe-Orn-Pro-hle-Bta-5Ff-NH2] (Ac-F[Orn]P[d(hLeu)][Bta][Phe(F5)]-NH2) | 50 to 200
CC(=O)N[C@@H](Cc1ccccc1)C(=O)N[C@@H](CCCN)C(=O)N1CCC[C@H]1C(=O)N[C@H](CCC(C)C)C(=O)N[C@@H](Cc1csc2ccccc12)C(=O)NC1(C(N)=O)Cc2ccccc2C1 [Compound 273, Ac-Phe-Orn-Pro-hle-Bta-Aic-NH2] (Ac-F[Orn]P[d(hLeu)][Bta][Aic]-NH2) | 50 to 200
CC(=O)N[C@@H](Cc1ccccc1)C(=O)N[C@@H](CCCN)C(=O)N1CCC[C@H]1C(=O)N[C@H](CCC(C)C)C(=O)N[C@@H](Cc1csc2ccccc12)C(=O)N[C@@H](CC1CCCCC1)C(N)=O [Compound 274, Ac-Phe-Orn-Pro-hle-Bta-Cha-NH2] (Ac-F[Orn]P[d(hLeu)][Bta][Cha]-NH2) | 50 to 200
CC(=O)N[C@@H](Cc1ccccc1)C(=O)N[C@@H](CCCN)C(=O)N1CCC[C@H]1C(=O)N[C@H](CCC(C)C)C(=O)N[C@@H](Cc1csc2ccccc12)C(=O)N[C@H](C(N)=O)C1CCCCC1 [Compound 275, Ac-Phe-Orn-Pro-hle-Bta-Chg-NH2] (Ac-F[Orn]P[d(hLeu)][Bta][Chg]-NH2) | 50 to 200
CC(=O)N[C@@H](Cc1ccccc1)C(=O)N[C@@H](CCCN)C(=O)N1CCC[C@H]1C(=O)N[C@H](CCC(C)C)C(=O)N[C@@H](Cc1csc2ccccc12)C(=O)N[C@@H](Cc1ccc(Cl)c(Cl)c1)C(N)=O [Compound 276, Ac-Phe-Orn-Pro-hle-Bta-Eaa-NH2] (Ac-F[Orn]P[d(hLeu)][Bta][Phe(3,4-Cl2)]-NH2) | 50 to 200
CC(=O)N[C@@H](Cc1ccccc1)C(=O)N[C@@H](CCCN)C(=O)N1CCC[C@H]1C(=O)N[C@H](CCC(C)C)C(=O)N[C@@H](Cc1csc2ccccc12)C(=O)N[C@@H](Cc1ccc(Cl)cc1Cl)C(N)=O [Compound 277, Ac-Phe-Orn-Pro-hle-Bta-Egy-NH2] (Ac-F[Orn]P[d(hLeu)][Bta][Phe(2,4-Cl2)]-NH2) | 50 to 200
CC(=O)N[C@@H](Cc1ccccc1)C(=O)N[C@@H](CCCN)C(=O)N1CCC[C@H]1C(=O)N[C@H](CCC(C)C)C(=O)N[C@@H](Cc1csc2ccccc12)C(=O)N[C@@H](Cc1ccc(Cl)cc1)C(N)=O [Compound 278, Ac-Phe-Orn-Pro-hle-Bta-Pcf-NH2] (Ac-F[Orn]P[d(hLeu)][Bta][Phe(4-Cl)]-NH2) | 50 to 200
CC(=O)N[C@@H](Cc1ccccc1)C(=O)N[C@@H](CCCN)C(=O)N1CCC[C@H]1C(=O)N[C@H](CCC(C)C)C(=O)N[C@@H](Cc1csc2ccccc12)C(=O)N[C@@H](Cc1ccc(F)cc1)C(N)=O [Compound 279, Ac-Phe-Orn-Pro-hle-Bta-Pff-NH2] (Ac-F[Orn]P[d(hLeu)][Bta][Phe(4-F)]-NH2) | 50 to 200
CC(=O)N[C@@H](Cc1ccccc1)C(=O)N[C@@H](CCCN)C(=O)N1CCC[C@H]1C(=O)N[C@H](CCC(C)C)C(=O)N[C@@H](Cc1csc2ccccc12)C(=O)N[C@@H](Cc1ccccc1)C(N)=O [Compound 280, Ac-Phe-Orn-Pro-hle-Bta-Phe-NH2] (Ac-F[Orn]P[d(hLeu)][Bta]F-NH2) | 20 to 50
